As usually defined, the IC50 is the concentration needed to halve the response being measured.

The assay has as its target T1, human TrkA (Homo sapiens, UniProt P04629).
T1 construct: histidine-tagged recombinant human TrkA, cytoplasmic domain; His tag; purchased Invitrogen Corp
The assay can be described thus: TrkA ELISA assay. The class given is biochemical. As to conditions: 2.5 nM TrkA, 500 µM ATP, 25 minutes at ambient temperature; read-out: TrkA Elisa Enzyme IC50. The method, then:
An enzyme-linked immunosorbant assay (ELISA) was used to assess TrkA kinase activity in the presence of inhibitors. […] The assay buffer consisted of 25 mM MOPS pH 7.5, 0.005% (v/v) Triton X-100 and 5 mM MgCl2. The reaction mixture was removed from the plate by washing with PBS containing 0.1% (v/v) Tween 20. […] After the addition of 1M phosphoric acid, the chromogenic substrate color intensity was quantitated via absorbance at 450 nm. IC50 values were calculated using either a 4 or 5-parameter logistic curve fit.
A general note: In an ELISA, binding on a coated surface is turned into a signal by an enzyme label.

T1 sequence (P04629 440-796 limits assumed): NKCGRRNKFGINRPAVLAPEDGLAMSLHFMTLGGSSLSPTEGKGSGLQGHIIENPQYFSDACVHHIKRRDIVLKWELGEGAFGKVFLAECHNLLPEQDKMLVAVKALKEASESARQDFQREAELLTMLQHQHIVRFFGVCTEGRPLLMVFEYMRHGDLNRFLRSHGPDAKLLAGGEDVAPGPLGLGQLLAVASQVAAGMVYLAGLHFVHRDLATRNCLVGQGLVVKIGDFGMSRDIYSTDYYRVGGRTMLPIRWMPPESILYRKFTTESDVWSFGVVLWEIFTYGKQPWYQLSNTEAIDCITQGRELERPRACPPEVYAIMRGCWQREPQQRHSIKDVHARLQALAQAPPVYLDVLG

For the molecule `Cc1noc(C)c1NC(=O)Nc1cnc2ccc(N3CCC[C@@H]3c3cc(F)ccc3F)nn12` [Example 33, (R)-1-(6-(2-(2,5-difluorophenyl)pyrrolidin-1-yl)imidazo[1,2-b]pyridazin-3-yl)-3-(3,5-dimethylisoxazol-4-yl)urea], the IC50 was 901 nM.
As for `N#Cc1ccc(NC(=O)Nc2cnc3ccc(N4CCC[C@@H]4c4cc(F)ccc4F)nn23)cc1` [Example 6, (R)-1-(4-cyanophenyl)-3-(6-(2-(2,5-difluorophenyl)pyrrolidin-1-yl)imidazo[1,2-b]pyridazin-3-yl)urea], the figure is 10.7 nM; as for `CS(=O)(=O)Nc1ccc(C(=O)Nc2cnc3ccc(N4CCC[C@@H]4c4cc(F)ccc4F)nn23)cc1` [Example 4, (R)-N-(6-(2-(2,5-difluorophenyl)pyrrolidin-1-yl)imidazo[1,2-b]pyridazin-3-yl)-4-(methylsulfonamido)benzamide], 2.1 nM.
Turning to `Cn1nc(C(=O)Nc2cnc3ccc(N4CCC[C@@H]4c4cc(F)ccc4F)nn23)ccc1=O` [Example 57, (R)-N-(6-(2-(2,5-difluorophenyl)pyrrolidin-1-yl)imidazo[1,2-b]pyridazin-3-yl)-1-methyl-6-oxo-1,6-dihydropyridazine-3-carboxamide], the half-inhibitory concentration (IC50) came to 2.3 nM.
`Cn1cc(C(=O)Nc2cnc3ccc(N4CCC[C@@H]4c4cc(F)ccc4F)nn23)ccc1=O` [Example 56, (R)-N-(6-(2-(2,5-difluorophenyl)pyrrolidin-1-yl)imidazo[1,2-b]pyridazin-3-yl)-1-methyl-6-oxo-1,6-dihydropyridine-3-carboxamide]: the IC50 was 10.2 nM.
As for `CC(C)(C)OC(=O)N1CCN(C(=O)Nc2cnc3ccc(N4CCC[C@@H]4c4cc(F)ccc4F)nn23)CC1(C)C` [Example 48, (R)-tert-butyl 4-(6-(2-(2,5-difluorophenyl)pyrrolidin-1-yl)imidazo[1,2-b]pyridazin-3-ylcarbamoyl)-2,2-dimethylpiperazine-1-carboxylate], the figure is 8.3 nM.
The same measure for `COc1cc(NC(=O)Nc2cnc3ccc(N4CCC[C@@H]4c4cc(F)ccc4F)nn23)cc(OC)c1OC` [Example 32, (R)-1-(6-(2-(2,5-difluorophenyl)pyrrolidin-1-yl)imidazo[1,2-b]pyridazin-3-yl)-3-(3,4,5-trimethoxyphenyl)urea]: 176 nM.
The same measure for `N#Cc1cccc(NC(=O)Nc2cnc3ccc(N4CCC[C@@H]4c4cc(F)ccc4F)nn23)c1` [Example 5, (R)-1-(3-cyanophenyl)-3-(6-(2-(2,5-difluorophenyl)pyrrolidin-1-yl)imidazo[1,2-b]pyridazin-3-yl)urea]: 74.2 nM; for `O=C(Nc1ccc(Cl)cc1Cl)Nc1cnc2ccc(N3CCC[C@@H]3c3cc(F)ccc3F)nn12` [Example 7, (R)-1-(2,4-dichlorophenyl)-3-(6-(2-(2,5-difluorophenyl)pyrrolidin-1-yl)imidazo[1,2-b]pyridazin-3-yl)urea]: 39.4 nM.
Take `O=C(Nc1cnc2ccc(N3CCCCC3c3cccc(F)c3)nn12)N1CC(O)C1` (stereo not drawn) [Example 43, N-(6-(2-(3-fluorophenyl)piperidin-1-yl)imidazo[1,2-b]pyridazin-3-yl)-3-hydroxyazetidine-1-carboxamide]: the IC50 was 216 nM.
The same measure for `COc1ccc(NC(=O)Nc2cnc3ccc(N4CCC[C@@H]4c4cc(F)ccc4F)nn23)cc1` [Example 30, (R)-1-(6-(2-(2,5-difluorophenyl)pyrrolidin-1-yl)imidazo[1,2-b]pyridazin-3-yl)-3-(4-methoxyphenyl)urea]: 5.5 nM; for `O=C(Nc1cccc(C(F)(F)F)c1)Nc1cnc2ccc(N3CCC[C@@H]3c3cc(F)ccc3F)nn12` [Example 8, (R)-1-(6-(2-(2,5-difluorophenyl)pyrrolidin-1-yl)imidazo[1,2-b]pyridazin-3-yl)-3-(3-(trifluoromethyl)phenyl)urea]: 508 nM.

The values are drawn from patent EP2350075B1, “SUBSTITUTED IMIDAZO[1,2B]PYRIDAZINE COMPOUNDS AS TRK KINASE INHIBITORS” (Array Biopharma, Inc., priority 2008, dated 2010).
